Measured values published in US20220249540A1, “INHALABLE COMPOSITION COMPROMISING CYCLODEXTRIN FOR USE IN THE TREATMENT OF NASAL INFLAMMATIONS” (AQUILON PHARMACEUTICALS SA, priority 2019, published 2022).

What was measured:
[1] = test system: goblet cells in nasal mucosa tissue; assay: goblet cells in nasal mucosa tissue of Ovalbumin-sensitized mice (PAS staining); format: in vivo, BALB/c mice; details: 50 mM in PBS by aerosolization 360 min before each OVA inhalation, Day 22 to 98; control group 50%
Method: Eight male and female BALB/c mice (6-8 weeks of age at the beginning of the protocol) were sensitized with Ovalbulmin (OVA) on D1 and D11 by intraperitoneal (i.p.) injection (10 μg grade V OVA diluted in 200 μl PBS), followed by OVA aerosols (10% grade Ill OVA dissolved in PBS buffer −50 ml were aerosolized with ultrasonic nebulizer during 30 minutes in a 30×20×15 cm Plexiglas exposure box where the animals were authorized to breathe and move normally). Aerosol administration was performed 360 min after i.n. treatments with Placebo or hydroxypropyl-gamma-cyclodextrin (HP-gamma-CD) during even weeks from days 22 to 98 (5 days/even week).
Mice were treated from Day 22 to Day 98 (5 days per week even week) with PBS (8 mice in control group) or with hydroxypropyl-gamma-cyclodextrin 50 mM diluted in PBS (8 mice in treated group) by aeorosolization (50 ml were aerosolized during 30 minutes in a Plexiglas exposure box where the animals were authorized to breathe and move normally) 360 min before each OVA inhalation.
On Day 99, the animals were sacrificed. […]
Numbers of goblet cells were counted using digitalized images of histological slides. Three hundred epithelial cells were counted at random and the percentage of positive cells for PAS staining (Goblet cells) was established relative to cells negative for PAS staining.

Wistar rats = assay: two-week Dose-Range-Finding (DRF) Inhalation Study, histopathology of the nasal cavities; format: in vivo; details: for Normal (number of animals with normal nasal cavity histopathology): 3 examined
Method: Hydroxypropylbetacyclodextrin (HPBCD) was administered during two-weeks in a Dose-Range-Finding (DRF) Inhalation Study to Wistar rats in three different delivered doses: • low of 20 mg/kg/day and a target atmosphere concentration of 0.3 mg/L, • medium of 60 mg/kg/day and a target atmosphere concentration of 0.9 mg/L, and • […] to each three male and three non-pregnant female rats.
A control group which received control vehicle in the form of citrate buffer was provided with three male and three non-pregnant female rats. After terminal euthanasia, the nasal cavity was removed. Nasal cavities were embedded in paraffin wax, sections were cut at 4-6 μm by microtome and transferred to slides. Tissue sections were stained with haematoxylin-eosin/phloxine and examined by light microscope. Full histopathology of the nasal cavities, as well as the other organs of the respiratory tract, was performed in each group and is shown in FIG. 1. 4 levels of the nasal cavities were examined, among which 1 level included the nasopharyngeal duct and Nasal Associated Lymphoid Tissue (NALT).
Nasal cavities analyzed by histopathology were normal at all exposure levels of HPBCD.

Compound | % of goblet cells in nasal mucosa tissue [1] | Normal (number of animals with normal nasal cavity histopathology) (Wistar rats; Female, High dosage (180 mg/kg/day)) | Normal (number of animals with normal nasal cavity histopathology) (Wistar rats; Female, Low dosage (20 mg/kg/day)) | Normal (number of animals with normal nasal cavity histopathology) (Wistar rats; Female, Mid dosage (60 mg/kg/day)) | Normal (number of animals with normal nasal cavity histopathology) (Wistar rats; Male, High dosage (180 mg/kg/day)) | Normal (number of animals with normal nasal cavity histopathology) (Wistar rats; Male, Low dosage (20 mg/kg/day)) | Normal (number of animals with normal nasal cavity histopathology) (Wistar rats; Male, Mid dosage (60 mg/kg/day)) | Nasal cavities analyzed by histopathology (Wistar rats; all exposure levels (20, 60, 180 mg/kg/day), nose-only inhalation, 90 min/day, 14 days)
2-hydroxypropyl-γ-cyclodextrin [Hydroxypropyl-gamma-cyclodextrin] | 20% | – | – | – | – | – | – | –
CC(O)COC[C@H]1O[C@@H]2O[C@H]3[C@H](O)[C@@H](O)[C@@H](O[C@H]4[C@H](O)[C@@H](O)[C@@H](O[C@H]5[C@H](O)[C@@H](O)[C@@H](O[C@H]6[C@H](O)[C@@H](O)[C@@H](O[C@H]7[C@H](O)[C@@H](O)[C@@H](O[C@H]8[C@H](O)[C@@H](O)[C@@H](O[C@H]1[C@H](O)[C@H]2O)O[C@@H]8COCC(C)O)O[C@@H]7COCC(C)O)O[C@@H]6COCC(C)O)O[C@@H]5COCC(C)O)O[C@@H]4COCC(C)O)O[C@@H]3COCC(C)O (stereo partly drawn) [HPBCD, 2-hydroxypropyl-beta-cyclodextrin] | – | 3 | 3 | 3 | 3 | 3 | 3 | normal
